Test results: PMC4742234, “Screening of Drug Metabolizing Enzymes for the Ginsenoside Compound K In Vitro: An Efficient Anti-Cancer Substance Originating from Panax Ginseng” (PLoS ONE, 2016)
Where “and” joins values, the source holds several entries; their conditions need not be identical. Identical values can stand only once. Entries after “also recorded” stand apart in the source; their conditions may differ.

Key:
Type in all cases: in vitro ADME
[1] = Kinetic analysis of CK metabolism in human liver microsomes; conditions: human, human liver microsomes, pH 7.4, HLMs 0.5 mg/mL, CK 10–100 μM, 37°C, NADPH
Method: (§1) The method was conducted according to our previous study with some modifications. The CYP isoform-specific probe reactions used were phenacetin O-deethylation (for CYP1A2), coumarin 7-hydroxylation (for CYP2A6), tolbutamide 4-hydroxylation (for CYP2C9), metoprolol α-hydroxylation (for CYP2D6), chlorzoxazone 6-hydroxylation (for CYP2E1),S-Mephenytoin 4-hydroxylation (for CYP2C19), and midazolam 1-hydroxylation (for CYP3A4). The kinetic study of CK was conducted with HLMs. A 0.2 mL incubation mixture that consisted of CK (as a substrate), the HLMs (0.5 mg/mL) or CYP isoforms (10 pmol), and 0.1 M sodium phosphate buffer (pH 7.4) was pre-warmed for 5 min at 37°C. The reaction was initiated by the addition of 1 mg/mL triphosphopyridine nucleotide (NADPH). All the reagents were dissolved in methanol, and the final solvent concentration in all incubations (including the controls) was 1%. The final incubations were performed in a shaking water bath (37°C) for 30 min. The reactions were stopped by adding 0.2 mL ice-cold acetonitrile, which contains irbesartan (114.9 ng/mL) as the internal standard. The samples were vortexed for 5 min. After centrifugation (12000×g for 10 min), the supernatants were transferred, and aliquots of 20 μL were injected into the HPLC-MS/MS system for analysis. […]

[2] = test system: human liver microsomes (HLMs); assay: as above; conditions: HLMs 0.5 mg/mL, CK 10–100 μM, 37°C, 30 min, NADPH
Method: as §1

CYP2A6 = target: T1, CYP2A6 (Homo sapiens, UniProt P11509); assay: Inhibition of CYP2A6 (coumarin 7-hydroxylation) by CK in HLMs
T1 construct: tissue Cypex Ltd. (U.K.); host or cells: pooled human liver microsomes
T1 sequence (P11509 1-494): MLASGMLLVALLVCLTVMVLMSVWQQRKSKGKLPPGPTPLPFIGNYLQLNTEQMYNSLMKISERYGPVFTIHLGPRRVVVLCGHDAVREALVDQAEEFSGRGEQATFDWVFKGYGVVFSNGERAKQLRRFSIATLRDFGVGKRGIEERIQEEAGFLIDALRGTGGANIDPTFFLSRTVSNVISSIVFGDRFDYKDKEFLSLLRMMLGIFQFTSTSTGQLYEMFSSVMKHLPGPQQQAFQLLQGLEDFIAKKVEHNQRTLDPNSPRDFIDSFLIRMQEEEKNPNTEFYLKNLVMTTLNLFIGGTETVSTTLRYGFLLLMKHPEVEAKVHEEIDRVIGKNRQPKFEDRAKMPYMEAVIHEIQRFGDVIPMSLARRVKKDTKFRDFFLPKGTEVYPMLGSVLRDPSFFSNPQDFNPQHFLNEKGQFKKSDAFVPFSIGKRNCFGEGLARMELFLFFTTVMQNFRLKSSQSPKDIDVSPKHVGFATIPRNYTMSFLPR
Method: The method was conducted according to our previous study with some modifications. The CYP isoform-specific probe reactions used were phenacetin O-deethylation (for CYP1A2), coumarin 7-hydroxylation (for CYP2A6), tolbutamide 4-hydroxylation (for CYP2C9), metoprolol α-hydroxylation (for CYP2D6), chlorzoxazone 6-hydroxylation (for CYP2E1),S-Mephenytoin 4-hydroxylation (for CYP2C19), and midazolam 1-hydroxylation (for CYP3A4). The kinetic study of CK was conducted with HLMs. A 0.2 mL incubation mixture that consisted of CK (as a substrate), the HLMs (0.5 mg/mL) or CYP isoforms (10 pmol), and 0.1 M sodium phosphate buffer (pH 7.4) was pre-warmed for 5 min at 37°C. The reaction was initiated by the addition of 1 mg/mL triphosphopyridine nucleotide (NADPH). All the reagents were dissolved in methanol, and the final solvent concentration in all incubations (including the controls) was 1%. The final incubations were performed in a shaking water bath (37°C) for 30 min. The reactions were stopped by adding 0.2 mL ice-cold acetonitrile, which contains irbesartan (114.9 ng/mL) as the internal standard. The samples were vortexed for 5 min. After centrifugation (12000×g for 10 min), the supernatants were transferred, and aliquots of 20 μL were injected into the HPLC-MS/MS system for analysis.
CK (10–100 μM) and a single CYP isoform-specific substrate (with a concentration similar to its corresponding Kmvalue) were used to determine the inhibitory effect of CK on specific CYP isoforms as described in detail previously. Substrates including phenacetin, coumarin, tolbutamide, metoprolol, chlorzoxazone, S-Mephenytoin, and midazolam were used at concentrations of 10, 5, 100, 7.5, 40, 100, and 5 μM, respectively. All incubation conditions were the same as mentioned above. The inhibitory effects on the CYP isoforms were investigated individually by incubating the HLMs in the absence or presence of CK. […]

CYP2C9 = CYP2C9 (Homo sapiens, UniProt P11712); assay: Effect of specific inhibitor sulfaphenazole on CK metabolism in HLMs; design: tissue Cypex Ltd. (U.K.); host or cells: pooled human liver microsomes; conditions: CK 50 μM, in the presence of sulfaphenazole 1 μM
CYP2C9, sequence (P11712 whole entry, canonical isoform): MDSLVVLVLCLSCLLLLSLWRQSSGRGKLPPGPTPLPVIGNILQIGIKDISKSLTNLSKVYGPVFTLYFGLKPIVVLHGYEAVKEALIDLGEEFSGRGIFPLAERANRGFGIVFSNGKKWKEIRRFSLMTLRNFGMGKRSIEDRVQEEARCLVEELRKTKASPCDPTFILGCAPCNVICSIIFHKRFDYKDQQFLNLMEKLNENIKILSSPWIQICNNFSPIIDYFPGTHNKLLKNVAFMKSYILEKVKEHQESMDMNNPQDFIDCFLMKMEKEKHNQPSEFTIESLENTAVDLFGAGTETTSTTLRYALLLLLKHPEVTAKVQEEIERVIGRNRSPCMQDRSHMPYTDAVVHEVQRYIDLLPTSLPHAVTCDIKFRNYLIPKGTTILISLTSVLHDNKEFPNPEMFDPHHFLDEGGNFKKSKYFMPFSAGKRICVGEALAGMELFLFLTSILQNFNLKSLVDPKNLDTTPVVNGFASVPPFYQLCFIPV
Method: The method was conducted according to our previous study with some modifications. The CYP isoform-specific probe reactions used were phenacetin O-deethylation (for CYP1A2), coumarin 7-hydroxylation (for CYP2A6), tolbutamide 4-hydroxylation (for CYP2C9), metoprolol α-hydroxylation (for CYP2D6), chlorzoxazone 6-hydroxylation (for CYP2E1),S-Mephenytoin 4-hydroxylation (for CYP2C19), and midazolam 1-hydroxylation (for CYP3A4). The kinetic study of CK was conducted with HLMs. A 0.2 mL incubation mixture that consisted of CK (as a substrate), the HLMs (0.5 mg/mL) or CYP isoforms (10 pmol), and 0.1 M sodium phosphate buffer (pH 7.4) was pre-warmed for 5 min at 37°C. The reaction was initiated by the addition of 1 mg/mL triphosphopyridine nucleotide (NADPH). […]
To screen the specific CYP isoform responsible for the CK metabolism, we determined the inhibitory effect of specific inhibitors on the metabolism of CK in the HLMs as described in detail previously. […] The inhibitory effects of the above specific inhibitors on the metabolic clearance rate of CK were evaluated separately to screen the CYP isoforms responsible for the CK metabolism. The relative activity of the CYP isoforms was calculated by dividing the peak area of CK when incubated with the inhibitor by that of CK from the negative controls. […]

For CC(C)=CCC[C@](C)(OC1O[C@H](CO)[C@@H](O)[C@H](O)[C@H]1O)[C@H]1CC[C@]2(C)[C@@H]1[C@H](O)C[C@@H]1[C@@]3(C)CC[C@H](O)C(C)(C)[C@@H]3CC[C@]12C (stereo partly drawn) [CK, 20-O-β-(D-glucopyranosyl)-20(S)-protopanaxadiol], the Km at 30 min [1] was 84.2 ± 21.9 µM, the “Vmax of CK metabolism” value [2] was 0.28±0.04 nmol/mg protein/min and 0.2840 nmol/mg protein/min and the “inhibitory effect on the activity of CYP2A6” value (CYP2A6; HLMs, CK 10–100 μM) was “minimal; also recorded: negligible”. The IC50 (CYP2A6; HLMs, coumarin 5 μM, CK 10–100 μM) was greater than 100 µM, the “inhibitor potency class for CYP2A6” value (CYP2A6; classified by IC50 according to Kong et al) was “weak (weak, if IC50≥100 μg/mL or ≥50 μM)” and the “metabolic clearance rate (MCR) of CK, of that of the control” value (CYP2C9) was 73.5±20.9% and 73.5%.
